Columns and labels:
WDR5 [1] = molecular target: T1, WDR5 (Homo sapiens, UniProt P61964); experiment: Fluorescence Polarization (FP) binding assay
How it was run: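 Displacement of fluorescein-labelled H3 (1-15) (30 nM, with 0.3 μM WDR5) or 9-Ala-FAM (20 nM, with 0.05 μM WDR5) in 80 mM sodium phosphate pH 6.5, 20 mM KCl, 0.008% Triton X-100. FP read at 485/528 nm (H3) or 480/540 nm (9-Ala-FAM); Kdisp from hyperbolic fit, mean of quadruplicates.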

WDR5 [2] = molecular target: T1, WDR5; experiment: Surface Plasmon Resonance (SPR) assay; format: binding; set-up: Full length WDR5 with an N-terminal His tag and C-terminal AviTag; His tag (N); made in house; host or cells: E. coli; conditions: read-out: SPR Kd
How it was run: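 Full-length biotinylated WDR5 (N-His, C-AviTag, E. coli) captured (~3000 RU) on streptavidin SA chip; Biacore T200. HBS-EP pH 7.4 plus 5% DMSO running buffer, 40 μl/min.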

MV4-11 cells = experiment: Cell proliferation assay (ATPlite); format: cell-based; conditions: Homo sapiens, 120 h; MV4-11 cells, five days; read-out: GI MV411 EC50
How it was run: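 Cells seeded at 1,000/well in Alpha-MEM with 10% FBS, treated with compound over a 10-point range (top 10 μM) or DMSO. Grown five days at 37° C, 5% CO2; viability by ATPlite luminescence.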

Row | Structure (SMILES) | IC50 (WDR5 [1]) | Kd (WDR5 [2]) | EC50 (MV4-11 cells)
1 | C[C@H]1CN(c2ncc(-c3c(F)cc(N4CCN(C)[C@@H](C)C4)c(NC(=O)c4c[nH]c(=O)cc4C(F)F)c3F)cn2)CCO1 [Example 126, 4-(Difluoromethyl)-N-(6-((S)-3,4-dimethylpiperazin-1-yl)-2,4-difluoro-3-(2-((S)-2-methylmorpholino)pyrimidin-5-yl)phenyl)-6-oxo-1,6-dihydropyridine-3-carboxamide] | 11.8 nM | 0.56 nM | 11.8 nM
2 | C[C@@H]1CN(c2ncc(-c3c(F)cc(N4CCN(C)[C@@H](C)C4)c(NC(=O)c4c[nH]c(=O)cc4C(F)(F)F)c3F)cn2)CCO1 [Example 127, N-(6-((S)-3,4-dimethylpiperazin-1-yl)-2,4-difluoro-3-(2-((R)-2-methylmorpholino)pyrimidin-5-yl)phenyl)-6-oxo-4-(trifluoromethyl)-1,6-dihydropyridine-3-carboxamide] | 11.7 nM | 0.69 nM | 10.2 nM
3 | C[C@@H]1CN(c2ncc(-c3c(F)cc(N4C[C@@H](C)N(C)[C@@H](C)C4)c(NC(=O)c4c[nH]c(=O)cc4C(F)(F)F)c3F)cn2)CCO1 [Example 128, N-(2,4-difluoro-3-(2-((R)-2-methylmorpholino)pyrimidin-5-yl)-6-((3S,5R)-3,4,5-trimethylpiperazin-1-yl)phenyl)-6-oxo-4-(trifluoromethyl)-1,6-dihydropyridine-3-carboxamide] | 12.8 nM | 0.69 nM | 5.85 nM
4 | C[C@@H]1CN(c2ncc(-c3c(F)cc(N4CCN(C)[C@@H](C)C4)c(NC(=O)c4c[nH]c(=O)cc4C(F)F)c3F)cn2)CCO1 [Example 129, 4-(Difluoromethyl)-N-(6-((S)-3,4-dimethylpiperazin-1-yl)-2,4-difluoro-3-(2-((R)-2-methylmorpholino)pyrimidin-5-yl)phenyl)-6-oxo-1,6-dihydropyridine-3-carboxamide] | 8.79 nM | 0.34 nM | 13.5 nM
5 | C[C@@H]1CN(c2ncc(-c3c(F)cc(N4C[C@@H](C)N(C)[C@@H](C)C4)c(NC(=O)c4c[nH]c(=O)cc4C(F)F)c3F)cn2)CCO1 [Example 130, N-(2,4-difluoro-3-(2-((R)-2-methylmorpholino)pyrimidin-5-yl)-6-((3S,5R)-3,4,5-trimethylpiperazin-1-yl)phenyl)-4-(difluoromethyl)-6-oxo-1,6-dihydropyridine-3-carboxamide] | 8.92 nM | 0.55 nM | 10.2 nM
6 | C[C@@H]1CN(c2nc(-c3c(F)cc(N4CCN(C)[C@@H](C)C4)c(NC(=O)c4c[nH]c(=O)cc4C(F)(F)F)c3F)cs2)C[C@H](C)O1 [Example 131, N-(3-(2-((2S,6R)-2,6-dimethylmorpholino)thiazol-4-yl)-6-((S)-3,4-dimethylpiperazin-1-yl)-2,4-difluorophenyl)-6-oxo-4-(trifluoromethyl)-1,6-dihydropyridine-3-carboxamide] | 16.6 nM | 5.12 nM | 208 nM
7 | C[C@@H]1CN(c2nc(-c3c(F)cc(N4CCN(C)[C@@H](C)C4)c(NC(=O)c4c[nH]c(=O)cc4C(F)F)c3F)cs2)C[C@H](C)O1 [Example 132, 4-(Difluoromethyl)-N-(3-(2-((2S,6R)-2,6-dimethylmorpholino)thiazol-4-yl)-6-((S)-3,4-dimethylpiperazin-1-yl)-2,4-difluorophenyl)-6-oxo-1,6-dihydropyridine-3-carboxamide] | 12.4 nM | 2.01 nM | 132 nM
8 | CC(C)OC(=O)N1CC=C(c2c(F)cc(N3C[C@@H](C)N(C)[C@@H](C)C3)c(NC(=O)c3c[nH]c(=O)cc3C(F)(F)F)c2F)CC1 [Example 133] | 12.3 nM | 2.62 nM | 58.5 nM
9 | CC(C)OC(=O)N1CC=C(c2c(F)cc(N3C[C@@H](C)N(C)[C@@H](C)C3)c(NC(=O)c3c[nH]c(=O)cc3C(F)(F)F)c2F)C1 [Example 134] | 11.4 nM | 0.87 nM | 55.8 nM
10 | C[C@@H]1CN(c2cc(F)c(C3=CCN(C(=O)OC4CC(F)(F)C4)CC3)c(F)c2NC(=O)c2c[nH]c(=O)cc2C(F)(F)F)C[C@H](C)N1C [Example 135, 3,3-Difluorocyclobutyl 4-(2,6-difluoro-3-(6-oxo-4-(trifluoromethyl)-1,6-dihydropyridine-3-carboxamido)-4-((3S,5R)-3,4,5-trimethylpiperazin-1-yl)phenyl)-5,6-dihydropyridine-1(2H)-carboxylate] | 12.5 nM | 2.31 nM | 67.4 nM
11 | C[C@@H]1CN(c2cc(F)c(C3=CCN(C(=O)OC4CC(F)(F)C4)C3)c(F)c2NC(=O)c2c[nH]c(=O)cc2C(F)(F)F)C[C@H](C)N1C [Example 136, 3,3-Difluorocyclobutyl 3-(2,6-difluoro-3-(6-oxo-4-(trifluoromethyl)-1,6-dihydropyridine-3-carboxamido)-4-((3S,5R)-3,4,5-trimethylpiperazin-1-yl)phenyl)-2,5-dihydro-1H-pyrrole-1-carboxylate] | 14.9 nM | 1.16 nM | 42 nM
12 | COc1cnc(N2CC=C(c3c(F)cc(N4C[C@@H](C)N(C)[C@@H](C)C4)c(NC(=O)c4c[nH]c(=O)cc4C(F)(F)F)c3F)CC2)nc1 [Example 137, N-(2,4-difluoro-3-(1-(5-methoxypyrimidin-2-yl)-1,2,3,6-tetrahydropyridin-4-yl)-6-((3S,5R)-3,4,5-trimethylpiperazin-1-yl)phenyl)-6-oxo-4-(trifluoromethyl)-1,6-dihydropyridine-3-carboxamide] | 17 nM | 2.57 nM | 75.1 nM
13 | COc1cnc(N2CCC=C(c3c(F)cc(N4C[C@@H](C)N(C)[C@@H](C)C4)c(NC(=O)c4c[nH]c(=O)cc4C(F)(F)F)c3F)C2)nc1 [Example 138, N-(2,4-difluoro-3-(1-(5-methoxypyrimidin-2-yl)-1,2,5,6-tetrahydropyridin-3-yl)-6-((3S,5R)-3,4,5-trimethylpiperazin-1-yl)phenyl)-6-oxo-4-(trifluoromethyl)-1,6-dihydropyridine-3-carboxamide] | 19.5 nM | 1.93 nM | 109 nM
14 | COc1cnc(N2CC=C(c3c(F)cc(N4C[C@@H](C)N(C)[C@@H](C)C4)c(NC(=O)c4c[nH]c(=O)cc4C(F)(F)F)c3F)C2)nc1 [Example 139, N-(2,4-difluoro-3-(1-(5-methoxypyrimidin-2-yl)-2,5-dihydro-1H-pyrrol-3-yl)-6-((3S,5R)-3,4,5-trimethylpiperazin-1-yl)phenyl)-6-oxo-4-(trifluoromethyl)-1,6-dihydropyridine-3-carboxamide] | 12 nM | 1.65 nM | 18.5 nM
15 | COc1cc(N2CC=C(c3c(F)cc(N4C[C@@H](C)N(C)[C@@H](C)C4)c(NC(=O)c4c[nH]c(=O)cc4C(F)(F)F)c3F)CC2)ncn1 [Example 140, N-(2,4-difluoro-3-(1-(6-methoxypyrimidin-4-yl)-1,2,3,6-tetrahydropyridin-4-yl)-6-((3S,5R)-3,4,5-trimethylpiperazin-1-yl)phenyl)-6-oxo-4-(trifluoromethyl)-1,6-dihydropyridine-3-carboxamide] | 14.5 nM | 1.4 nM | 30.9 nM
16 | C[C@@H]1CN(c2cc(F)c(C3=CCN(C(=O)OC4(C)CCC4)C3)c(F)c2NC(=O)c2c[nH]c(=O)cc2C(F)(F)F)C[C@H](C)N1C [Example 141, 1-Methylcyclobutyl 3-(2,6-difluoro-3-(6-oxo-4-(trifluoromethyl)-1,6-dihydropyridine-3-carboxamido)-4-((3S,5R)-3,4,5-trimethylpiperazin-1-yl)phenyl)-2,5-dihydro-1H-pyrrole-1-carboxylate] | 10.1 nM | 0.96 nM | 31.2 nM
17 | COc1cc(N2CCC=C(c3c(F)cc(N4C[C@@H](C)N(C)[C@@H](C)C4)c(NC(=O)c4c[nH]c(=O)cc4C(F)(F)F)c3F)C2)ncn1 [Example 142, N-(2,4-difluoro-3-(1-(6-methoxypyrimidin-4-yl)-1,2,5,6-tetrahydropyridin-3-yl)-6-((3S,5R)-3,4,5-trimethylpiperazin-1-yl)phenyl)-6-oxo-4-(trifluoromethyl)-1,6-dihydropyridine-3-carboxamide] | 13.2 nM | 1.76 nM | 38.3 nM
18 | COc1cc(N2CC=C(c3c(F)cc(N4C[C@@H](C)N(C)[C@@H](C)C4)c(NC(=O)c4c[nH]c(=O)cc4C(F)(F)F)c3F)C2)ncn1 [Example 143, N-(2,4-difluoro-3-(1-(6-methoxypyrimidin-4-yl)-2,5-dihydro-1H-pyrrol-3-yl)-6-((3S,5R)-3,4,5-trimethylpiperazin-1-yl)phenyl)-6-oxo-4-(trifluoromethyl)-1,6-dihydropyridine-3-carboxamide] | 14.4 nM | 0.92 nM | 17.7 nM
19 | C[C@@H]1CN(c2cc(F)c(C3=CCN(C(=O)OC4(C)CCC4)CC3)c(F)c2NC(=O)c2c[nH]c(=O)cc2C(F)(F)F)C[C@H](C)N1C [Example 144, 1-Methylcyclobutyl 4-(2,6-difluoro-3-(6-oxo-4-(trifluoromethyl)-1,6-dihydropyridine-3-carboxamido)-4-((3S,5R)-3,4,5-trimethylpiperazin-1-yl)phenyl)-5,6-dihydropyridine-1(2H)-carboxylate] | 12.7 nM | 1.53 nM | 11.4 nM

Reference: patent publication US20200385371A1 (Propellon Therapeutics Inc., priority 2017, published 2020)
